In ChEMBL document CHEMBL1909046, “DrugMatrix in vitro pharmacology data”:

Experiments:
[1] = biological target: T1, Alpha-1A adrenergic receptor (Rattus norvegicus, UniProt P43140); assay: DRUGMATRIX: Alpha-1A adrenergic receptor radioligand binding (ligand: prazosin); assay type: cell membranes, Wistar, Submaxillary gland, Membrane; conditions: Not Active = under 50% inhibition at 10 µM
T1 sequence (P43140 whole entry): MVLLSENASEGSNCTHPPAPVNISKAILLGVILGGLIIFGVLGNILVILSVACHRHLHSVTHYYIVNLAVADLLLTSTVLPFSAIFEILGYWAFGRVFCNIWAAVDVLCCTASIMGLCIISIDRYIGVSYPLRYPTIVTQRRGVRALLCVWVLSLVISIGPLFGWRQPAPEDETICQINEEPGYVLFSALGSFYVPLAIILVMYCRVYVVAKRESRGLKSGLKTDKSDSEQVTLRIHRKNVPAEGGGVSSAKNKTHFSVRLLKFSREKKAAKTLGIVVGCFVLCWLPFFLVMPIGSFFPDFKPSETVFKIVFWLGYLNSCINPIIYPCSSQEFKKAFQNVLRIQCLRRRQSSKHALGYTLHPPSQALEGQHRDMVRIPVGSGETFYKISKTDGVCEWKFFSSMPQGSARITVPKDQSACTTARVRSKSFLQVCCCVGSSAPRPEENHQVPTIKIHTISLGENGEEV

[2] = biological target: T2, Type-2 angiotensin II receptor (Homo sapiens, UniProt P50052); assay type: cell-based; conditions: cho-k1; note: in other assays of this panel Not Active means under 50% inhibition at 10 µM
T2 sequence (P50052 whole entry): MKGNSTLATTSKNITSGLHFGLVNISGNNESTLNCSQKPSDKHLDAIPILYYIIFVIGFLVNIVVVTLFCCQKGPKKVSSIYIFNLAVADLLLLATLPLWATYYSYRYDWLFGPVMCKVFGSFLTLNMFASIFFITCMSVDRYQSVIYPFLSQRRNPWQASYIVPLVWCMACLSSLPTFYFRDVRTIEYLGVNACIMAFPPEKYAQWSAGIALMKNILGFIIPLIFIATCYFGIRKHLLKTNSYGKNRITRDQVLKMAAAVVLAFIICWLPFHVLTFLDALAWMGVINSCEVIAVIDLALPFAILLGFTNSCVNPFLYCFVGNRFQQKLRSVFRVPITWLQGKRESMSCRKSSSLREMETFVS

[3] = biological target: Vascular endothelial growth factor receptor 1 (Homo sapiens, UniProt P17948); assay type: cell-based; conditions: huvec; note: in other assays of this panel Not Active means under 50% inhibition at 10 µM
[4] = biological target: T3, Vasoactive intestinal polypeptide receptor 1 (Homo sapiens, UniProt P32241); assay type: cell membranes, Membrane; conditions: ht-29; note: in other assays of this panel Not Active means under 50% inhibition at 10 µM
T3 sequence (P32241 whole entry): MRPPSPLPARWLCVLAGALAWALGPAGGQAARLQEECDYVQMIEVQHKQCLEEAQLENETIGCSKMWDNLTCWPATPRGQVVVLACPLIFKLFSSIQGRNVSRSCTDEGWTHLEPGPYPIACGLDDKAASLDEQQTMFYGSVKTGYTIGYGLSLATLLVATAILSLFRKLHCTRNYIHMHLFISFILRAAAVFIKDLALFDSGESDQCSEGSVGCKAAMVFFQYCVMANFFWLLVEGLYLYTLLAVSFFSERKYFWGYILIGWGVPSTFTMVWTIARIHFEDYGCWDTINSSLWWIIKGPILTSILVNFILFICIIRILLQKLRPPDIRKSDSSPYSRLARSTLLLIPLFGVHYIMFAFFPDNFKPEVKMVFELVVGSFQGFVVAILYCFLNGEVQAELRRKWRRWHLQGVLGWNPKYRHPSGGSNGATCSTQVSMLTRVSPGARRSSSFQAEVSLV

Carbonic anhydrase 2 = Carbonic anhydrase 2 (Homo sapiens, UniProt P00918); assay: DRUGMATRIX: Carbonic Anhydrase II enzyme inhibition (substrate: 4-Nitrophenyl acetate (4-NPA)); assay type: tissue-based, Erythrocyte; conditions: erythrocyte; Not Active = under 50% inhibition at 10 µM
[5] = biological target: T4, Neuropeptide Y receptor type 2 (Homo sapiens, UniProt P49146); assay type: cell membranes, Membrane; conditions: kan-ts; note: in other assays of this panel Not Active means under 50% inhibition at 10 µM
T4 sequence (P49146 whole entry): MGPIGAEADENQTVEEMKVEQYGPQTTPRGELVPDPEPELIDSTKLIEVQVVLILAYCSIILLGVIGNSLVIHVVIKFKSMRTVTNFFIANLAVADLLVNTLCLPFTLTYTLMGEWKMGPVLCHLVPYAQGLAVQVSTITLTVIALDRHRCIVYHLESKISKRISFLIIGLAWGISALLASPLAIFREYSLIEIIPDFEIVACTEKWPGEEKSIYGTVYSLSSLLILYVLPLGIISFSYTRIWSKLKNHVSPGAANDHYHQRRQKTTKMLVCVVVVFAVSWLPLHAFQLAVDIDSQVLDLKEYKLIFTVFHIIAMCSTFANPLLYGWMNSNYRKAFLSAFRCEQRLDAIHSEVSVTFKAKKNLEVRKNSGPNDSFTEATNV

[6] = biological target: Delta-type opioid receptor (Homo sapiens, UniProt P41143); assay type: cell membranes, HEK293, Membrane; conditions: hek293; note: in other assays of this panel Not Active means under 50% inhibition at 10 µM
Cytochrome P450 1A2 = biological target: T5, Cytochrome P450 1A2 (Homo sapiens, UniProt P05177); conditions: bti-tn-5b1-4; note: in other assays of this panel Not Active means under 50% inhibition at 10 µM
T5 sequence (P05177 whole entry): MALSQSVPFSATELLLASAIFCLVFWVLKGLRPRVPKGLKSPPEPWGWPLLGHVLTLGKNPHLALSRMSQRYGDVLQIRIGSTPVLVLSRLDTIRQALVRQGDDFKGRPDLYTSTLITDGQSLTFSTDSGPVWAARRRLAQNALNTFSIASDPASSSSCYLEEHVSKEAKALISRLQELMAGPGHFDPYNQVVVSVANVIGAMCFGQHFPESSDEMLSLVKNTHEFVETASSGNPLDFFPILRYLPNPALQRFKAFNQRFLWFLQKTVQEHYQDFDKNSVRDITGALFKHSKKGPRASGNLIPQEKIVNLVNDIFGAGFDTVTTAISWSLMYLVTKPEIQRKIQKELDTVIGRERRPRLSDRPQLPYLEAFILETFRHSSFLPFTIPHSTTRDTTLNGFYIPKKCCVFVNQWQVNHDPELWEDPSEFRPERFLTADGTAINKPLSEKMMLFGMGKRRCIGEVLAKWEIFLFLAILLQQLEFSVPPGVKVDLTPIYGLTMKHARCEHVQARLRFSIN

Sequence of Vascular endothelial growth factor receptor 1 (P17948 whole entry): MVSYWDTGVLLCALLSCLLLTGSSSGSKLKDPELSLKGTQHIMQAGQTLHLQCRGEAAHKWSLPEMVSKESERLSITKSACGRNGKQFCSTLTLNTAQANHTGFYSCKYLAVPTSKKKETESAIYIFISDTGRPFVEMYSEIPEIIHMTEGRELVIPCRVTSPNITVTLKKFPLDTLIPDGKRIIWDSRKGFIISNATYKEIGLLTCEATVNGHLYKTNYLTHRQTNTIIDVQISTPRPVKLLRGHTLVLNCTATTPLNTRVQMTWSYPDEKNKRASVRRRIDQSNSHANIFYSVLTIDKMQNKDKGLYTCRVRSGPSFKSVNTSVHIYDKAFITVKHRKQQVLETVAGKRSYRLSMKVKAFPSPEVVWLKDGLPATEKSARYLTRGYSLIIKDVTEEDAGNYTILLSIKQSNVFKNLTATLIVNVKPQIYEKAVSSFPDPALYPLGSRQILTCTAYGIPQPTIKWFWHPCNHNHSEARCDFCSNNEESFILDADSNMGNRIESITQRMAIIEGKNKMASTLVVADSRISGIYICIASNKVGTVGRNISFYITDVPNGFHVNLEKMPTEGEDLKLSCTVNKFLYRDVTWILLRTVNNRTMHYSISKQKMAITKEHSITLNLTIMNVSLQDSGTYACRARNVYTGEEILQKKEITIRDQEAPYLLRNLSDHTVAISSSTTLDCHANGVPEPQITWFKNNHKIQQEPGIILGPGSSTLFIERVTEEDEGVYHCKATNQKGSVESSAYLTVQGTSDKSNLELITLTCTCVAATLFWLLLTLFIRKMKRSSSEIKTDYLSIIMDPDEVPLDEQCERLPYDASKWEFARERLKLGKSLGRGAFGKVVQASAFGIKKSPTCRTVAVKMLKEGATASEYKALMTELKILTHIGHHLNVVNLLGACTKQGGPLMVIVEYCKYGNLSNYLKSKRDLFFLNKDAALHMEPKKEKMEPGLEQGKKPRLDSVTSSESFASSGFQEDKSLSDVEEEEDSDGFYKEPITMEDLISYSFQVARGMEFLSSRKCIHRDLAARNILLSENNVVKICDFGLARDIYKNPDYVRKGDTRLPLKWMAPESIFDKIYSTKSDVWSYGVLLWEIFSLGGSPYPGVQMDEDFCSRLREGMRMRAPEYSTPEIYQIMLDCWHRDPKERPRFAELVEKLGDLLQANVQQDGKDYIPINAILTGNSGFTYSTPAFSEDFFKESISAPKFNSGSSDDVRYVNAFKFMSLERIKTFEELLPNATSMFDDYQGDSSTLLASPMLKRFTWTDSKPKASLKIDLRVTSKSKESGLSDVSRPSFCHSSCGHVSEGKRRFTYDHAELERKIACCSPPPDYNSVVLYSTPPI
Sequence of Delta-type opioid receptor (P41143 whole entry): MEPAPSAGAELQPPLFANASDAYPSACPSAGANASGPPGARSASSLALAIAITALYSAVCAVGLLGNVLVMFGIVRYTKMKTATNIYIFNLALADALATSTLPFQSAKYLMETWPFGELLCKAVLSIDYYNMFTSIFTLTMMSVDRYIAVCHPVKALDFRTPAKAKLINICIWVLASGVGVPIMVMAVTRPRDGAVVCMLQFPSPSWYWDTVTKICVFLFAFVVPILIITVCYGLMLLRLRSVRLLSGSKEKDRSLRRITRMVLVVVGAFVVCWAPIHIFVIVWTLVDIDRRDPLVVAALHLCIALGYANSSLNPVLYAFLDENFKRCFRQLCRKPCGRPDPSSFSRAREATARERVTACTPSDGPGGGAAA

O=c1[nH]cnc2c1ncn2[C@H]1CC[C@@H](CO)O1 [DIDANOSINE]
Not Active: IC50 [1] | IC50 [2] | IC50 [3] | IC50 [4] | IC50 (Carbonic anhydrase 2) | IC50 [5] | IC50 [6] | IC50 (Cytochrome P450 1A2) | Ki (Cytochrome P450 1A2)

CC(=O)[C@]1(O)Cc2c(O)c3c(c(O)c2[C@@H](O[C@H]2C[C@H](N)[C@H](O)[C@H](C)O2)C1)C(=O)c1ccccc1C3=O [IDARUBICIN]
Not Active: IC50 [1] | IC50 [2] | IC50 [3] | IC50 [4] | IC50 (Carbonic anhydrase 2) | IC50 [5] | IC50 [6] | IC50 (Cytochrome P450 1A2) | Ki (Cytochrome P450 1A2)

COC(=O)Nc1nc2ccc(Sc3ccccc3)cc2[nH]1 [FENBENDAZOLE]
Not Active: IC50 [1] | IC50 [2] | IC50 [3] | IC50 [4] | IC50 (Carbonic anhydrase 2) | IC50 [5] | IC50 [6] | IC50 (Cytochrome P450 1A2) | Ki (Cytochrome P450 1A2)

CC(C)(c1ccc(O)cc1)c1ccc(O)cc1 [BISPHENOL A]
Not Active: IC50 [1] | IC50 [2] | IC50 [3] | IC50 [4] | IC50 (Carbonic anhydrase 2) | IC50 [5] | IC50 [6] | IC50 (Cytochrome P450 1A2) | Ki (Cytochrome P450 1A2)

C=C(Cl)Cl [1,1-DICHLOROETHENE]
Not Active: IC50 [1] | IC50 [2] | IC50 [3] | IC50 [4] | IC50 (Carbonic anhydrase 2) | IC50 [5] | IC50 [6] | IC50 (Cytochrome P450 1A2) | Ki (Cytochrome P450 1A2)

O=C(O)CCc1nc(-c2ccccc2)c(-c2ccccc2)o1 [OXAPROZIN]
Not Active: IC50 [1] | IC50 [2] | IC50 [3] | IC50 [4] | IC50 (Carbonic anhydrase 2) | IC50 [5] | IC50 [6] | IC50 (Cytochrome P450 1A2) | Ki (Cytochrome P450 1A2)

NCC(CC(=O)O)c1ccc(Cl)cc1 (stereo not given) [BACLOFEN]
Not Active: IC50 [1] | IC50 [2] | IC50 [3] | IC50 [4] | IC50 (Carbonic anhydrase 2) | IC50 [5] | IC50 [6] | IC50 (Cytochrome P450 1A2) | Ki (Cytochrome P450 1A2)

CC[C@H]1OC(=O)[C@H](C)[C@@H](O[C@H]2C[C@@](C)(OC)[C@@H](O)[C@H](C)O2)[C@H](C)[C@@H](O[C@@H]2O[C@H](C)C[C@H](N(C)C)[C@H]2O)[C@](C)(O)C[C@@H](C)C(=O)[C@H](C)[C@@H](O)[C@]1(C)O [ERYTHROMYCIN]
Not Active: IC50 [1] | IC50 [2] | IC50 [3] | IC50 [4] | IC50 (Carbonic anhydrase 2) | IC50 [5] | IC50 [6] | IC50 (Cytochrome P450 1A2) | Ki (Cytochrome P450 1A2)

C=CCO [ALLYL ALCOHOL]
Not Active: IC50 [1] | IC50 [2] | IC50 [3] | IC50 [4] | IC50 (Carbonic anhydrase 2) | IC50 [5] | IC50 [6] | IC50 (Cytochrome P450 1A2) | Ki (Cytochrome P450 1A2)

COC(=O)C[C@](O)(CCC(C)(C)O)C(=O)O[C@@H]1C(OC)=C[C@]23CCCN2CCc2cc4c(cc2[C@H]13)OCO4 [HARRINGTONINE]
Not Active: IC50 [1] | IC50 [2] | IC50 [3] | IC50 [4] | IC50 (Carbonic anhydrase 2) | IC50 [5] | IC50 [6] | IC50 (Cytochrome P450 1A2) | Ki (Cytochrome P450 1A2)

CHROMIC CHLORIDE
Not Active: IC50 [1] | Ki [1] | IC50 [2] | Ki [2] | IC50 [3] | Ki [3] | IC50 [4] | Ki [4] | IC50 (Carbonic anhydrase 2) | Ki (Carbonic anhydrase 2) | IC50 [5] | Ki [5] | IC50 [6] | Ki [6] | IC50 (Cytochrome P450 1A2) | Ki (Cytochrome P450 1A2)

C#C[C@]1(O)CC[C@H]2[C@@H]3CCC4=CC(=O)CC[C@@H]4[C@H]3CC[C@@]21C [NORETHINDRONE]
Not Active: IC50 [1] | IC50 [2] | IC50 [3] | IC50 [4] | IC50 (Carbonic anhydrase 2) | IC50 [5] | IC50 [6] | IC50 (Cytochrome P450 1A2) | Ki (Cytochrome P450 1A2)

O=C1CN(/N=C/c2ccc([N+](=O)[O-])o2)C(=O)N1 [NITROFURANTOIN]
Not Active: IC50 [1] | IC50 [2] | IC50 [3] | IC50 [4] | IC50 (Carbonic anhydrase 2) | IC50 [5] | IC50 [6] | IC50 (Cytochrome P450 1A2) | Ki (Cytochrome P450 1A2)

CC(C)Cn1cnc2c(N)nc3ccccc3c21 [IMIQUIMOD]
Not Active: IC50 [1] | IC50 [2] | IC50 [3] | IC50 [4] | IC50 (Carbonic anhydrase 2) | IC50 [5] | IC50 [6] | IC50 (Cytochrome P450 1A2) | Ki (Cytochrome P450 1A2)

OC[C@H]1OC2C3[C@@H](CO)OC(O[C@H]4[C@H](O)[C@@H](O)[C@@H](O[C@H]5[C@H](O)[C@@H](O)[C@@H](O[C@H]6[C@H](O)[C@@H](O)[C@@H](O[C@H]7[C@H](O)[C@@H](O)[C@@H](O[C@H]8[C@H](O)[C@@H](O)[C@@H](O[C@H]9[C@H](O)[C@@H](O)C(OC1[C@H](O)[C@H]2O)O[C@@H]9CO)O[C@@H]8CO)O[C@@H]7CO)O[C@@H]6CO)O[C@@H]5CO)O[C@@H]4CO)[C@H](O)[C@H]3O
Not Active: IC50 [1] | IC50 [2] | IC50 [3] | IC50 [4] | IC50 (Carbonic anhydrase 2) | IC50 [5] | IC50 [6] | IC50 (Cytochrome P450 1A2) | Ki (Cytochrome P450 1A2)

COc1cc(/C=C/C(=O)O)ccc1O [FERULATE]
Not Active: IC50 [1] | IC50 [2] | IC50 [3] | IC50 [4] | IC50 (Carbonic anhydrase 2) | IC50 [5] | IC50 [6] | IC50 (Cytochrome P450 1A2) | Ki (Cytochrome P450 1A2)

CCN1C[C@]2(COC)[C@H](O)C[C@H](OC)[C@@]34[C@@H]5C[C@@]6(O)[C@H](OC(=O)c7ccccc7)[C@@H]5[C@@](OC(C)=O)([C@@H]([C@H](OC)[C@H]23)[C@@H]14)[C@@H](O)[C@@H]6OC [ACONITINE]
Not Active: IC50 [1] | IC50 [2] | IC50 [3] | IC50 [4] | IC50 (Carbonic anhydrase 2) | IC50 [5] | IC50 [6] | IC50 (Cytochrome P450 1A2) | Ki (Cytochrome P450 1A2)
